Molecules are shown by their SMILES. “And” between values parts separate entries of the source, which are not always exact repeats. Identical values can stand only once. Bounds are passed on as bounds.

In this test the target is T1, human CTPS1 (Homo sapiens, UniProt P17812).
T1 construct: purchased Proteros biostructures GmbH
T1 sequence (P17812 1-591): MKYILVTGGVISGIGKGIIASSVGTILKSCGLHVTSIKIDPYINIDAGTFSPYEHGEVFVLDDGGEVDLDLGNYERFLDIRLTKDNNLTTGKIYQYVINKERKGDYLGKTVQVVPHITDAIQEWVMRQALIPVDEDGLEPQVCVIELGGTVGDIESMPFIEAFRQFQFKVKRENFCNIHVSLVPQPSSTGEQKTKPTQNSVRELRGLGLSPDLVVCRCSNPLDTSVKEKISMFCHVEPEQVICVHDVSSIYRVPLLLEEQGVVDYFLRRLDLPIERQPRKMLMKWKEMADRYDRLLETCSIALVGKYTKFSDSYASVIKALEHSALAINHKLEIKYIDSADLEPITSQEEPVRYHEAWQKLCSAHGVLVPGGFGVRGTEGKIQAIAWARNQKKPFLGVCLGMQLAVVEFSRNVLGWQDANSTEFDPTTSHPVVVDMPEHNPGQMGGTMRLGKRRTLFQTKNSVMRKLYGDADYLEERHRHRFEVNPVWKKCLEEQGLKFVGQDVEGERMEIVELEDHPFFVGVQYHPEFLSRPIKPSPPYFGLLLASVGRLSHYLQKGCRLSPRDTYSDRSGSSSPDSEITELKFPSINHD
The experiment in a line: Human CTPS1 enzyme inhibition (ADP-Glo Max assay). The test is classed as biochemical. Conditions: Table 18, additional potency data, 25° C., read-out: CTPS1 (Human CTPS1 Enzyme Inhibition data grouped by potency range). The method, boiled down: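 ADP-Glo Max luminescence detection of ATP-to-ADP conversion by the enzyme, in 50 mM Tris, 10 mM MgCl2, 0.01% Tween-20, pH 8.0, with 2 mM L-cysteine added fresh. Enzyme preincubated with compound 10 minutes at 25° C. Percentage inhibition calculated per compound concentration.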
(ADP-Glo turns the ADP formed in a reaction into a luminescent signal.)
`CCc1cc(-c2cncc(C#N)c2)cc(CC)c1NC(=O)C(C)(C)c1csc(NS(=O)(=O)C2CC2)n1` [T349, N-(4-(5-cyanopyridin-3-yl)-2,6-diethylphenyl)-2-(2-(cyclopropanesulfonamido)thiazol-4-yl)-2-methylpropanamide]: the IC50 was 100 to 1000 nM.
Regarding `Cc1sc(NS(=O)(=O)C2CC2)nc1C(C)(C)C(=O)Nc1ccc(-c2cncc(C(F)(F)F)c2)cc1F` [T350, 2-(2-(cyclopropanesulfonamido)-5-methylthiazol-4-yl)-N-(2-fluoro-4-(5-(trifluoromethyl)pyridin-3-yl)phenyl)-2-methylpropanamide], the IC50 was in the range of 100 to 1000 nM.
`CC(C)(C(=O)Nc1c(F)cc(-c2cncc(Cl)c2)cc1F)c1csc(NS(=O)(=O)C2CC2)n1` [T351, N-(4-(5-chloropyridin-3-yl)-2,6-difluorophenyl)-2-(2-(cyclopropanesulfonamido)thiazol-4-yl)-2-methylpropanamide]: the IC50 is 100 to 1000 nM and < 100 nM.
For `Cc1cc(NC(=O)C(C)(C)c2csc(NS(=O)(=O)C3CC3)n2)c(F)cc1-c1cncc(Cl)c1` [T352, N-(4-(5-chloropyridin-3-yl)-2-fluoro-5-methylphenyl)-2-(2-(cyclopropanesulfonamido)thiazol-4-yl)-2-methylpropanamide], the IC50 is 100 to 1000 nM.
Regarding `COC(C)(C)c1cncc(-c2ccc(NC(=O)C(C)(C)c3csc(NS(=O)(=O)C4CC4)n3)c(F)c2)n1` [T353, 2-(2-(cyclopropanesulfonamido)thiazol-4-yl)-N-(2-fluoro-4-(6-(2-methoxypropan-2-yl)pyrazin-2-yl)phenyl)-2-methylpropanamide], the IC50 is 100 to 1000 nM.
For `Cc1sc(NS(=O)(=O)C2CC2)nc1C(C)(C)C(=O)Nc1ccc(-c2cncc(C(F)(F)F)n2)cc1F` [T354, 2-(2-(cyclopropanesulfonamido)-5-methylthiazol-4-yl)-N-(2-fluoro-4-(6-(trifluoromethyl)pyrazin-2-yl)phenyl)-2-methylpropanamide] the value was 100 to 1000 nM.
For `CC(C)(C(=O)Nc1ccc(-c2cncc(C#N)n2)cc1F)c1csc(NS(=O)(=O)C2CC2)n1` [T355, N-(4-(6-cyanopyrazin-2-yl)-2-fluorophenyl)-2-(2-(cyclopropanesulfonamido)thiazol-4-yl)-2-methylpropanamide] the value was 1000 to 10000 nM.
Regarding `CCc1cncc(-c2ccc(NC(=O)C(C)(C)c3csc(NS(=O)(=O)C4CC4)n3)c(F)c2)n1` [T356, 2-(2-(cyclopropanesulfonamido)thiazol-4-yl)-N-(4-(6-ethylpyrazin-2-yl)-2-fluorophenyl)-2-methylpropanamide], the IC50 was below 100 nM.
For `CC(C)Oc1cncc(-c2ccc(NC(=O)C(C)(C)c3csc(NS(=O)(=O)C4CC4)n3)c(F)c2)n1` [T357, 2-(2-(cyclopropanesulfonamido)thiazol-4-yl)-N-(2-fluoro-4-(6-isopropoxypyrazin-2-yl)phenyl)-2-methylpropanamide] the value was below 100 nM.
For `CCOc1cncc(-c2ccc(NC(=O)C(C)(C)c3nc(NS(=O)(=O)C4CC4)sc3C)c(F)c2)n1` [T358, 2-(2-(cyclopropanesulfonamido)-5-methylthiazol-4-yl)-N-(4-(6-ethoxypyrazin-2-yl)-2-fluorophenyl)-2-methylpropanamide] the value was below 100 nM; for `CC(C)c1cc(-c2cncc(Cl)c2)ccc1NC(=O)C(C)(C)c1csc(NS(=O)(=O)C2CC2)n1` [T359, N-(4-(5-chloropyridin-3-yl)-2-isopropylphenyl)-2-(2-(cyclopropanesulfonamido)thiazol-4-yl)-2-methylpropanamide], below 100 nM.
For `CC(C)c1cc(-c2cncc(C#N)c2)ccc1NC(=O)C(C)(C)c1csc(NS(=O)(=O)C2CC2)n1` [T360, N-(4-(5-cyanopyridin-3-yl)-2-isopropylphenyl)-2-(2-(cyclopropanesulfonamido)thiazol-4-yl)-2-methylpropanamide] the value was 100 to 1000 nM; for `CC(C)c1cc(-c2cncc(C(F)(F)F)n2)ccc1NC(=O)C(C)(C)c1csc(NS(=O)(=O)C2CC2)n1` [T361, 2-(2-(cyclopropanesulfonamido)thiazol-4-yl)-N-(2-isopropyl-4-(6-(trifluoromethyl)pyrazin-2-yl)phenyl)-2-methylpropanamide], 100 to 1000 nM; for `CCOc1cncc(-c2ccc(NC(=O)C(C)(C)c3csc(NS(=O)(=O)C4CC4)n3)c(C(C)C)c2)n1` [T362, 2-(2-(cyclopropanesulfonamido)thiazol-4-yl)-N-(4-(6-ethoxypyrazin-2-yl)-2-isopropylphenyl)-2-methylpropanamide], below 100 nM.
As for `Cc1c(NC(=O)C(C)(C)c2csc(NS(=O)(=O)C3CC3)n2)ccc(-c2cncc(Cl)c2)c1F` [T363, N-(4-(5-chloropyridin-3-yl)-3-fluoro-2-methylphenyl)-2-(2-(cyclopropanesulfonamido)thiazol-4-yl)-2-methylpropanamide], the IC50 was below 100 nM.
For the compound `Cc1cc(-c2cncc(Cl)c2)c(F)cc1NC(=O)C(C)(C)c1csc(NS(=O)(=O)C2CC2)n1` [T364, N-(4-(5-chloropyridin-3-yl)-5-fluoro-2-methylphenyl)-2-(2-(cyclopropanesulfonamido)thiazol-4-yl)-2-methylpropanamide], the IC50 is 100 to 1000 nM.
For `Cc1c(NC(=O)C(C)(C)c2csc(NS(=O)(=O)C3CC3)n2)ccc(-c2cncc(Cl)c2)c1C` [T365, N-(4-(5-chloropyridin-3-yl)-2,3-dimethylphenyl)-2-(2-(cyclopropanesulfonamido)thiazol-4-yl)-2-methylpropanamide] the value was below 100 nM; for `Cc1cc(-c2cncc(Cl)c2)c(C)cc1NC(=O)C(C)(C)c1csc(NS(=O)(=O)C2CC2)n1` [T366, N-(4-(5-chloropyridin-3-yl)-2,5-dimethylphenyl)-2-(2-(cyclopropanesulfonamido)thiazol-4-yl)-2-methylpropanamide], 100 to 1000 nM.
Turning to `Cc1c(NC(=O)C(C)(C)c2csc(NS(=O)(=O)C3CC3)n2)ccc(-c2cncc(C#N)c2)c1F` [T367, N-(4-(5-cyanopyridin-3-yl)-3-fluoro-2-methylphenyl)-2-(2-(cyclopropanesulfonamido)thiazol-4-yl)-2-methylpropanamide], the IC50 was below 100 nM.
For `Cc1cc(-c2cncc(C(F)(F)F)n2)ccc1NC(=O)C(C)(C)c1csc(NS(=O)(=O)C2CC2)n1` [T368, 2-(2-(cyclopropanesulfonamido)thiazol-4-yl)-2-methyl-N-(2-methyl-4-(6-(trifluoromethyl)pyrazin-2-yl)phenyl)propanamide], the IC50 is below 100 nM.
Regarding `COc1cc(-c2cncc(Cl)c2)c(F)cc1NC(=O)C(C)(C)c1csc(NS(=O)(=O)C2CC2)n1` [T369, N-(4-(5-chloropyridin-3-yl)-5-fluoro-2-methoxyphenyl)-2-(2-(cyclopropanesulfonamido)thiazol-4-yl)-2-methylpropanamide], the IC50 was 100 to 1000 nM.
For `CCOc1cncc(-c2ccc(NC(=O)C(C)(C)c3csc(NS(=O)(=O)C4CC4)n3)cc2C)n1` [T371, 2-(2-(cyclopropanesulfonamido)thiazol-4-yl)-N-(4-(6-ethoxypyrazin-2-yl)-3-methylphenyl)-2-methylpropanamide] the value was below 100 nM; for `CCOc1cc(NC(=O)C(C)(C)c2csc(NS(=O)(=O)C3CC3)n2)ccc1-c1cncc(Cl)c1` [T372, N-(4-(5-chloropyridin-3-yl)-3-ethoxyphenyl)-2-(2-(cyclopropanesulfonamido)thiazol-4-yl)-2-methylpropanamide], 100 to 1000 nM.
For `O=C(Nc1ccc(-c2cncc(Cl)c2)cc1)C1(c2csc(NS(=O)(=O)C3CC3)n2)CC1` [T373, N-(4-(5-chloropyridin-3-yl)phenyl)-1-(2-(cyclopropanesulfonamido)thiazol-4-yl)cyclopropane-1-carboxamide] the value was below 100 nM; for `Cc1sc(NS(=O)(=O)C2CC2)nc1C(C)(C)C(=O)Nc1ccc(-c2cncc(C#N)c2)cc1` [T374, N-(4-(5-cyanopyridin-3-yl)phenyl)-2-(2-(cyclopropanesulfonamido)-5-methylthiazol-4-yl)-2-methylpropanamide], 1000 to 10000 nM.
For `COC(C)(C)c1cncc(-c2ccc(NC(=O)C(C)(C)c3csc(NS(=O)(=O)C4CC4)n3)cc2)n1` [T375, 2-(2-(cyclopropanesulfonamido)thiazol-4-yl)-N-(4-(6-(2-methoxypropan-2-yl)pyrazin-2-yl)phenyl)-2-methylpropanamide] the value was 100 to 1000 nM; for `CCOc1cncc(-c2ccc(NC(=O)C(C)(C)c3nc(NS(=O)(=O)C4CC4)sc3Cl)cc2)n1` [T376, 2-(5-chloro-2-(cyclopropanesulfonamido)thiazol-4-yl)-N-(4-(6-ethoxypyrazin-2-yl)phenyl)-2-methylpropanamide], 100 to 1000 nM.
On to `CCOc1cncc(-c2ccc(NC(=O)C(C)(C)c3nc(NS(=O)(=O)C4CC4)sc3OC)cc2)n1` [T377, 2-(2-(cyclopropanesulfonamido)-5-methoxythiazol-4-yl)-N-(4-(6-ethoxypyrazin-2-yl)phenyl)-2-methylpropanamide], for which the IC50 lay in the range of 100 to 1000 nM.

The values above are taken from patent publication US11655246B2, “Aminothiazole compounds as inhibitors of CTPS1” (STEP PHARMA S.A.S., priority 2017, dated 2023).
